In data set [1] the test system is murine BM-DC's. Briefly: Cytokine production by murine BM-DC's. It counts as cell-based, mouse. On the procedure: (§1) BM-DC's were generated using granulocyte-macrophage colony-stimulating factor (GM-CSF) and RPMI-1640 medium (Merck) supplemented with 10% fetal calf serum (FBS; Life Technologies), 2 mM glutamine (Thermo Fisher), 100 U/ml penicillin/streptomycin (Gibco), 50 μM 2-mercaptoethanol (Roth), 1 mM sodium pyruvate (Biochrome), and 1x non-essential amino acids (Biochrome) as previously described ([28]). Shortly, 2 × 10^6 bone marrow cells flushed from the tibias and femurs of C57BL/6 mice were seeded in dishes containing 200 U/ml GM-CSF. After 3 days extra medium containing GM-CSF was added to the cells and on day 6 half of the medium was replaced by fresh […] containing GM-CSF. After 7 or 8 days slightly attached cells were harvested. Female C57BL/6JolaHsd mice were purchased from Janvier (St. Berthevin Cedex, France). Animal experiments were performed in strict accordance with the German regulations of the Society for Laboratory Animal Science (GV-SOLAS) and the European Health Law of the Federation of Laboratory Animal Science Associations (FELASA). The protocol was approved by the Regierungspräsidium Tübingen (Anzeige 09.01.2014).
2 × 10^5 murine BM-DC's or human Mo-DC's were seeded in 96-well round bottom plates. First they were pretreated with 100 ng/ml pertussis toxin (Sigma-Aldrich) or 5 μM of the CCR2 inhibitor RS 504393 (Tocris) and subsequently stimulated with 100 ng/ml LPS or 0.2 […] and 10 μg/ml or 100 μg/ml hBD2. 24 h later supernatants were collected and TNF-α [Biolegend (BM-DC's); R&D (Mo-DC's)] was analyzed according to the manufacturer's instructions. IL-10, IL-12, and IL-1β (LEGENDplex Biolegend) was as well-analyzed according to the manufacturer's instructions.

The subject of data set [2] is murine BM-DC's. Briefly: Flow cytometry of BM-DCs (p-NF-κB, p-CREB, MHCII, CD86). Format: cell-based, mouse. The following applies: RS504393 prior to LPS + hBD2; n = 6. The procedure: as §1
2 × 10^5 murine BM-DC's were seeded in 96-well round bottom plates and treated as described above. Cells were removed from the plate using Accutase (Sigma-Aldrich) and stained for 20 min at room temperature with Zombie Aqua (Biolegend) to exclude dead cells and extracellular antibodies against CD11c-APC (N418) (Miltenyi), MHCII-FITC (M5/114.15.2) (Miltenyi) and CD86-BV421 (GL-1) (Biolegend). For p-CREB staining cells were fixed and permeabilized with Foxp3 Staining Buffer Set (eBioscience) and stained with primary antibody phosphor-CREB mAb (Ser133; clone 87G3) (Cell Signaling) for 30 min in the dark at room temperature followed by secondary goat anti-rabbit IgG-DyLight™649 (Jackson ImmunoResearch) for 15 min at 4°C. To detect intracellular p-NF-κB BM-DCs were fixed with 2% paraformaldehyde (VWR) in PBS, permeabilized with 90% freezing methanol (Applichem) and stained with the primary antibodies to phosphor-NF-κB p65 (93H1) (Cell Signaling) for 60 min in the dark at room temperature followed by goat anti-rabbit IgG-PE-Cy7 (Santa Cruz Biotechnology) for 15 min at 4°C. PBS with 0,5% bovine serum albumin (Biomol) was used for all incubations and washing steps. At least 50,000 cells were acquired using a Canto-II flow cytometer (BD […]) with DIVA software (BD Biosciences) and were further analyzed using FlowJo 10.5 software (Tree Star).

Data set [3] deals with SCID mice with CD4+/CD25− T cell transfer colitis. Briefly: T cell transfer colitis model. Format: in vivo, mouse. On the procedure:
This study was performed by the Department of Biomedical Science at the University of Catania according to directive 86/609 EEC and approved by Novozymes science ethics committee. 8 weeks old female BALB/c and C.B-17 female SCID mice were purchased from Harlan (Italy). Colitis was induced in severe combined immunodeficiency (SCID) mice by transplantation of CD4^+/CD25^− T cells from the BALB/c mice. Briefly, lymphomonocytes isolated from spleen or lymph nodes from BALB/c mice were subjected to negative selection of CD4^+ T cells. Afterwards, CD4^+/CD25^+ cells were positively isolated by binding to the beads from the CD4^+ T cell suspensions and the CD4^+/CD25^− were collected from supernatant. […] CD4^+/CD25^− cells were intraperitoneally injected to SCID mice at a concentration of 500,000 cells in a final volume of 0.2 ml RPMI 1640. Sham treated animals (n = 6) received 0.2 ml pure RPMI 1640. Diseased mice were randomized divided into 4 groups (n = 11) and treated once daily by s.c. application of PBS (vehicle), hBD2 (0.1 and 1 mg/kg, respectively) or 0.3 mg/kg Dexamethasone (Dexa., applied intraperitoneally). Treatments started 7 days post T cell transfer and continued daily for 86 days. Animals were weighed three times a week and monitored twice a week starting from day 42 for the clinical status, summarized as DAI. The DAI included body weight loss, stool consistency, and the presence of blood at the rectum. One animal in the vehicle and one in the Dexamethasone treated groups had to be sacrificed before the end of the study. At the end of the study, animals were sacrificed and the colon was removed and carefully cleaned for further analysis. First, the colon was weighed then a section from the middle was removed and fixed for pathologic survey. The rest of the colon (5 cm) was used to quantify the activity of myeloperoxidase in the tissue.
Myeloperoxidase activity was performed on 5 cm of colon previously frozen at −80°C. Colon was homogenized in 0.5% of HETAB dissolved in 10 mM of Phosphate-Citrate Buffer (pH 7.0) to enable the release of MPO enzyme from the neutrophil granules. Homogenated samples after three freeze-thaw cycles were spun at 3,000 × g at 4°C for 30 min. Pellets were resuspended in 0.5% HETAB in 10 mM Phosphate-Citrate Buffer and spun again at 3,000 × g at 4°C for 30 min. 500 ul of supernatant were delivered into a vial along with 500 ul of TMB in Phosphate-Citrate Buffer containing Perborate Sodium. Changes in absorbance at 620 and 450 nm were read by a spectrophotometer (IRIS). Peroxidase enzyme diluted in 0.5% HETAB in 10 mM Phosphate-Citrate Buffer and H2O was used as standard. Two-fold dilutions of standard were prepared at the highest concentration of 50 pg/ml. Reagents and samples were kept refrigerated. Substrate solution was prepared just before the assay. MPO activity expresses the amount of enzyme that is able to degrade […] of peroxide/min and it is expressed as U/g tissue weight.
Sections of the colon were taken from each animal and preserved in neutral buffered formaline for subsequent histological analysis. Sections were stained using haematoxylin and eosin for further scoring.

Data set [4] relates to CD patients. The following applies: clinical trial; cited from earlier work. The source says: Despite ongoing development of therapeutic approaches, new treatment strategies for the management of IBD are still urgently needed. Corticosteroids remain the standard therapeutic options for active CD and UC. However, their beneficial effects are associated with severe side effects such as osteoporosis, moon face, mood disturbances, glaucoma, and hypertension ([47]). In recent years, several new therapeutics targeting the molecular mechanisms of intestinal and systemic inflammation have been developed. Among these, anti-TNFα antibodies have been the most successful and most commonly used bio ...

Data set [5] deals with human dendritic cells and keratinocytes. The following applies: cited from earlier work. The source says: Herein we report that hBD2 can be used as a systemically administered anti-inflammatory biological. hBD2 is well-tolerated, both in vitro, and in vivo. […] After su ...
In data set [6] the test system is mice with DSS colitis. The following applies: rectally applied; cited from earlier work.
Where [7] appears, read: Dexamethasone 0.3 mg/kg i.p. daily, n = 10.

Where no end group is shown, it is not given here.

With `Cc1ccc2c(c1)C1(CCN(CCc3nc(-c4ccccc4)oc3C)CC1)OC(=O)N2` [RS504393, RS 504393, reference compound], the “Effect of pre-treatment on hBD2 modulation of cytokine secretion” value in data set [1] (5 μM RS504393 before LPS and hBD2) is given as “prevented the anti-inflammatory effect of hBD2”. In data set [2], the “Effect of pre-treatment on hBD2-mediated change of CREB phosphorylation” value is reported as “prevented the increase in CREB phosphorylation”; the “Effect of pre-treatment on hBD2-mediated change of MHCII and CD86 expression” value is “prevented this lower expression”; the “Effect of pre-treatment on hBD2-mediated change of NF-κB phosphorylation” value was “prevented the hBD2-mediated reductions in NF-κB activation”.

Take `C[C@@H]1C[C@H]2[C@@H]3CCC4=CC(=O)C=C[C@]4(C)[C@@]3(F)[C@@H](O)C[C@]2(C)[C@@]1(O)C(=O)CO` [dexamethasone, Dexamethasone, reference compound]: in data set [3] (Dexamethasone 0.3 mg/kg i.p. daily), the “Histological analysis of colon” value is “Less signs of inflammation”. In data set [3] (Dexamethasone 0.3 mg/kg i.p. daily vs hBD2 s.c.), the “Efficacy compared with hBD2” value is listed as “superior to hBD2 in the T cell transfer model”. In addition, in data set [3] (setting [7]), the Colon weight entry was “improved DAI, stool score and colon weight significantly”; the DAI result was “improved DAI, stool score and colon weight significantly”; the Stool score result was “improved DAI, stool score and colon weight significantly”.

As for Secukinumab, the “Disease course in CD patients” value in data set [4] was “worsened the disease”.

“hBD3: defensin named only as hBD3, cited for cytotoxicity in contrast to hBD2 (GIINTLQKYYCRVRGGRCAVLSCLPKEEQIGKCSTRGRKCCRRKK; ends and bridges not checked; cysteine pairing not given here; UniProt P81534 23-67, looked up)”: the Cytotoxic effects entry in data set [5] was “demonstrated cytotoxic effects”.

On to pertussis toxin [reference compound], for which, in data set [1] (100 ng/ml pertussis toxin before LPS and hBD2), the “Effect of pre-treatment on hBD2 modulation of TNF-α, IL-1β, IL-10, IL-12p70 secretion” value was “prevented the observed immunomodulatory capacity of hBD2”.

For porcine β-defensin 2 [pBD2], in data set [6], the “Mucosal injury and epithelial barrier in DSS colitis” value is “protective against mucosal injury and disruption of the epithelial barrier”.
